Experimental data reported in patent publication US20050112573A1, “Method of detecting toxic substance” (priority 2001, published 2005).

System: yeast genes (level of expressed mRNA)
Assay: DNA chip analysis of expressed mRNA of yeast genes after 2 h culture with a toxic chemical substance
Format: cell-based, Saccharomyces cerevisiae S288C
Protocol: Yeast (Saccharomyces cerevtisiae S288C (α SUC2mal mel gap2 CUP1)) were cultured at 25° C. on YPD medium (yeast extract 1%, polypepton 2%, glucose 2%). One of toxic chemical substances was added to the cell at logarithmic growth phase, and the cell was further cultured for two hours. Cell was cultured without any chemical substance in the same condition, and was used as control. Concentrations of the chemical substances were defined to inhibit the growth of the yeast but not lead to death.
After the completion of cultivation, the culture was centrifuged to collect the cells. To the cells, sodium acetate buffer (50 mM sodium acetate, 10 mM EDTA, 1% SDS) was added, and the mixture was shaken at 65° C. for five minutes, followed by returning to room temperature, and obtaining the supernatant, which procedure was repeated two times. To the supernatant, ½ amount of a solution of phenol/chloroform was added, and the mixture was centrifuged to give a supernatant, which was added with an equal amount of chloroform, and the mixture was centrifuged to give a supernatant. To the supernatant, an equal amount of isopropanol containing 0.3 M sodium acetate was added, and the mixture was allowed to stand at room temperature for 30 minutes, after which the mixture was centrifuged to give a sediment of the whole RNAs. Seventy % ethanol was added to the sediment, and the mixture was again centrifuged to give a sediment, which was then dried and dissolved in water. mRNA was isolated from the whole RNAs as followings. In view of the fact that a poly A chain is attached to the 3′ terminus of mRNA, a polynucleotide having a poly T structure which was immobilized on the surface of latex beads was used to trap the mRNA, and then the mRNA was washed and eluted with spine column (Oligotex-dT30<Super>mRNA Purification Kit, Takara). Reverse transcription of the mRNA was conducted with a reverse transcriptase (Super Script II Reverse Transcriptase; catalogue No. 18064-014, GibcoBRL) using fluorescence-labeled nucleotides to give cDNAs that were introduced with Cy3-dUTP or Cy5-dUTP during the reverse transcription.
The labeled cDNAs were dissolved in TE buffer (10 mM Tris-HCl/1 mM EDTA, pH8.0), and the solution was dropped on the DNA chip containing the whole genes of yeast (DNA Chip Research Inc. Japan) so that the cDNAs were hybridized on the DNA chip at 65° C. for over 12 hours. The fluoresces intensity of the DNA chip was read with a scanner, and the ratio relative to the fluorescence intensity resulting from the absence of chemical substance was estimated as the following, which is shown in Tables 1 to 9: [formula]
In the Tables, “Intensity” indicated in the rightmost column is a value of the level of expressed mRNA of each gene in control cells as divided by the average level of the expressions of the whole genes.

C[S+](C)[O-] [(15), dimethylsulfoxide]
The level of expressed mRNA in the presence of chemical substance/absence: YDR133C (gene YDR133C): 0.6
The level of expressed mRNA in the presence of chemical substance/absence: YDR140W (gene YDR140W): 0.9
The level of expressed mRNA in the presence of chemical substance/absence: YDR221W (gene YDR221W): 1.0
The level of expressed mRNA in the presence of chemical substance/absence: YDR250C (gene YDR250C): 0.7
The level of expressed mRNA in the presence of chemical substance/absence: YDR271C (gene YDR271C): 1.3
The level of expressed mRNA in the presence of chemical substance/absence: YDR278C (gene YDR278C): 0.7
The level of expressed mRNA in the presence of chemical substance/absence: YDR281C (gene YDR281C): 0.3
The level of expressed mRNA in the presence of chemical substance/absence: YDR316W (gene YDR316W): 1.3
The level of expressed mRNA in the presence of chemical substance/absence: YDR338C (gene YDR338C): 0.8
The level of expressed mRNA in the presence of chemical substance/absence: YDR366C (gene YDR366C): 1.4
level of expressed mRNA in the presence of chemical substance/in its absence (gene YDR380W): 2.4
level of expressed mRNA in the presence of chemical substance/in its absence (gene YDR410C): 1.2
The level of expressed mRNA in the presence of chemical substance/absence: YDR421W (gene YDR421W): 1.9
The level of expressed mRNA in the presence of chemical substance/absence: YDR425W (gene YDR425W): 1.3
The level of expressed mRNA in the presence of chemical substance/absence: YDR485C (gene YDR485C): 1.3
level of expressed mRNA in the presence of chemical substance/in its absence (gene YDR487C): 1.0
level of expressed mRNA in the presence of chemical substance/in its absence (gene YDR502C): 8.2
The level of expressed mRNA in the presence of chemical substance/absence: YDR504C (gene YDR504C): 1.2
level of expressed mRNA in the presence of chemical substance/in its absence (gene YEL011W): 0.4
level of expressed mRNA in the presence of chemical substance/in its absence (gene YEL020C): 1.4
The level of expressed mRNA in the presence of chemical substance/absence: YEL044W (gene YEL044W): 0.6
level of expressed mRNA in the presence of chemical substance/in its absence (gene YER026C): 4.0
level of expressed mRNA in the presence of chemical substance/in its absence (gene YER069W): 2.4
The level of expressed mRNA in the presence of chemical substance/absence: YER092W (gene YER092W): 1.0
The level of expressed mRNA in the presence of chemical substance/absence: YER182W (gene YER182W): 0.5
The level of expressed mRNA in the presence of chemical substance/absence: YFL042C (gene YFL042C): 1.1
level of expressed mRNA in the presence of chemical substance/in its absence (gene YFR015C): 0.4
The level of expressed mRNA in the presence of chemical substance/absence: YFR026C (gene YFR026C): 2.3
The level of expressed mRNA in the presence of chemical substance/absence: YFR056C (gene YFR056C): 0.9
level of expressed mRNA in the presence of chemical substance/in its absence (gene YGL001C): 0.9
level of expressed mRNA in the presence of chemical substance/in its absence (gene YGL022W): 4.0
level of expressed mRNA in the presence of chemical substance/in its absence (gene YGL039W): 1.5
The level of expressed mRNA in the presence of chemical substance/absence: YGL041C (gene YGL041C): 0.7
The level of expressed mRNA in the presence of chemical substance/absence: YGL045W (gene YGL045W): 1.5
The level of expressed mRNA in the presence of chemical substance/absence: YGL057C (gene YGL057C): 0.7
The level of expressed mRNA in the presence of chemical substance/absence: YGL088W (gene YGL088W): 0.4
level of expressed mRNA in the presence of chemical substance/in its absence (gene YGL104C): 0.9
level of expressed mRNA in the presence of chemical substance/in its absence (gene YGL126W): 2.8
level of expressed mRNA in the presence of chemical substance/in its absence (gene YGL134W): 0.5
level of expressed mRNA in the presence of chemical substance/in its absence (gene YGL154C): 0.8
The level of expressed mRNA in the presence of chemical substance/absence: YGL183C (gene YGL183C): 1.7
level of expressed mRNA in the presence of chemical substance/in its absence (gene YGL209W): 3.2
The level of expressed mRNA in the presence of chemical substance/absence: YGL223C (gene YGL223C): 0.7
level of expressed mRNA in the presence of chemical substance/in its absence (gene YGL253W): 0.8
The level of expressed mRNA in the presence of chemical substance/absence: YGR038W (gene YGR038W): 1.1
level of expressed mRNA in the presence of chemical substance/in its absence (gene YGR060W): 1.4
The level of expressed mRNA in the presence of chemical substance/absence: YGR139W (gene YGR139W): 2.3
The level of expressed mRNA in the presence of chemical substance/absence: YGR156W (gene YGR156W): 1.3
The level of expressed mRNA in the presence of chemical substance/absence: YGR198W (gene YGR198W): 0.9
The level of expressed mRNA in the presence of chemical substance/absence: YGR210C (gene YGR210C): 1.3
The level of expressed mRNA in the presence of chemical substance/absence: YGR211W (gene YGR211W): 0.5
The level of expressed mRNA in the presence of chemical substance/absence: YGR237C (gene YGR237C): 1.1
The level of expressed mRNA in the presence of chemical substance/absence: YGR243W (gene YGR243W): 0.8
The level of expressed mRNA in the presence of chemical substance/absence: YGR250C (gene YGR250C): 1.2
The level of expressed mRNA in the presence of chemical substance/absence: YGR266W (gene YGR266W): 1.1
The level of expressed mRNA in the presence of chemical substance/absence: YGR277C (gene YGR277C): 0.9
level of expressed mRNA in the presence of chemical substance/in its absence (gene YGR282C): 2.9
